Biological target: T1, JHDM1A (Homo sapiens, UniProt Q9Y2K7)
T1 sequence (Q9Y2K7 1-517): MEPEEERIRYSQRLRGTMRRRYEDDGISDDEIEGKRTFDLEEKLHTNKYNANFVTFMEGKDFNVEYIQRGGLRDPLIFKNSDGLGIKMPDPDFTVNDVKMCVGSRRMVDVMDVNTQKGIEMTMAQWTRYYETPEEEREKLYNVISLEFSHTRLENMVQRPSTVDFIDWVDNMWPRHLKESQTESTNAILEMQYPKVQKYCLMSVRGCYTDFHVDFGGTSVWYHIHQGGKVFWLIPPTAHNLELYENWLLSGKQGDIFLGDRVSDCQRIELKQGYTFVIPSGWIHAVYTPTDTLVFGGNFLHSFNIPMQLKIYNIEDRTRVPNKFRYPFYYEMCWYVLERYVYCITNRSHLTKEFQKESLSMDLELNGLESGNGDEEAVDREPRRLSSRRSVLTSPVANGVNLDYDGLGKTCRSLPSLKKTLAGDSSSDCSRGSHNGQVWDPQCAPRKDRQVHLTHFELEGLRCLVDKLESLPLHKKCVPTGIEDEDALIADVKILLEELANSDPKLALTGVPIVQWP
Assay: FP competitive binding assay with tracer 3 and JHDM1A
Conditions: 60 nM JHDM1A, 1 nM 3, Ni2+ buffer, 4 h

SMILES	displacement of tracer 3 from JHDM1A
O=C(O)/C=C/C(=O)N(O)CCCCNCc1ccc(COC(=O)Nc2cccc3ccccc23)cc1 [Compound 2, methylstat acid]	can displace 3 from JHDM1A
O=C(O)CNC(=O)C(=O)O [NOG, N-oxalyl glycine]	can displace 3 from JHDM1A
O=C(O)CCC(=O)C(=O)O [αKG, α-ketoglutarate]	can displace 3 from JHDM1A

From article PMC3724763 (Journal of medicinal chemistry, 2013)
